Experimental data taken from US8952024B2, “Herbicidal pyrimidone derivatives” (E I du Pont de Nemours and Company, priority 2009, dated 2015).

Key:
Assay type in all cases: in vivo
[1] = tested on: bermudagrass (Cynodon dactylon); experiment: Test B pre-/postemergence plant response
In short: (§1)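 Visual ratings on a 0–100 scale (100 = complete control) were made versus untreated controls 13–15 days after treatment in a greenhouse. Compounds in surfactant-containing non-phytotoxic solvent were applied preemergence to seeds in loam–sand blend or postemergence to 1- to 4-leaf plants (2–18 cm).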

[2] = tested on: cocklebur (Xanthium strumarium); experiment: Test B pre-/postemergence plant response; conditions: 250 g ai/ha, Preemergence, 0 to 100 scale
In short: as §1

[3] = tested on: goosegrass (Eleusine indica); experiment: Test B pre-/postemergence plant response
In short: as §1

[4] = tested on: green foxtail (Setaria viridis); experiment: Test B pre-/postemergence plant response
In short: as §1

[5] = tested on: lambsquarters (Chenopodium album); experiment: Test B pre-/postemergence plant response
In short: as §1

[6] = tested on: large crabgrass (Digitaria sanguinalis); experiment: Test B pre-/postemergence plant response
In short: as §1

[7] = tested on: morningglory (Ipomoea coccinea); experiment: Test B pre-/postemergence plant response
In short: as §1

[8] = tested on: wheat (Triticum aestivum); experiment: Test B pre-/postemergence plant response
In short: as §1

[9] = tested on: wild oat (Avena fatua); experiment: Test B pre-/postemergence plant response
In short: as §1

[10] = tested on: yellow nutsedge (Cyperus esculentus); experiment: Test B pre-/postemergence plant response
In short: as §1

[11] = tested on: barnyardgrass (Echinochloa crus-galli); experiment: Test B flooded paddy test; conditions: for Plant response rating, Barnyardgrass: Flood (flooded paddy test), 13 to 15 days
In short: (§2)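 Each compound is added to standing floodwater (3 cm above soil, maintained) in pots of 2-leaf-stage plants; greenhouse exposure lasts 13–15 d before visual comparison with controls on a 0–100 control scale.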

[12] = tested on: umbrella sedge (Cyperus difformis); experiment: Test B flooded paddy test; conditions: for Plant response rating, Sedge, Umbrella: Flood (flooded paddy test), 13 to 15 days
In short: as §2

[13] = 250 g ai/ha, Preemergence, 0 to 100 scale
[14] = Postemergence, 31 g ai/ha, scale 0 to 100 (0 no effect, 100 complete control)
[15] = Postemergence, 62 g ai/ha, scale 0 (no effect) to 100 (complete control), 13 to 15 days
[16] = Postemergence, 125 g ai/ha, visual rating after 13 to 15 days, scale 0 (no effect) to 100 (complete control)
[17] = Postemergence, 250 g ai/ha, scale 0 to 100
[18] = Preemergence, 31 g ai/ha, scale 0 to 100 (0 no effect, 100 complete control)
[19] = Preemergence, 62 g ai/ha, scale 0 to 100 (0 no effect, 100 complete control)
[20] = Preemergence, 125 g ai/ha, 0 to 100 scale
[21] = 250 g ai/ha, flooded paddy test, visual rating on 0 to 100 scale (0 no effect, 100 complete control) after 13 to 15 days
[22] = 31 g ai/ha, scale of 0 to 100 where 0 is no effect and 100 is complete control
[23] = 62 g ai/ha, scale 0 to 100, 0 is no effect, 100 is complete control
[24] = 125 g ai/ha, scale 0 to 100, 0 is no effect, 100 is complete control

## Cc1ccccc1-n1c(-c2cccc(Cl)c2)ncc(C(=O)C2=C(O)CCCC2=O)c1=O [Compound 36]
[1]; [13]
  Plant response rating, Bermudagrass: 100
[1]; [14]
  Plant response rating, Bermudagrass: 90
[1]; [15]
  Plant response rating, Bermudagrass: 98
[1]; [16]
  Plant response rating, Bermudagrass: 100
[1]; [17]
  Bermudagrass plant response rating: 100
[1]; [18]
  Plant response rating, Bermudagrass: 95
[1]; [19]
  Plant response rating, Bermudagrass: 100
[1]; [20]
  Bermudagrass plant response rating: 100
[2]
  Plant response rating, Cocklebur: 80
[3]; [13]
  Plant response rating, Goosegrass: 100
[3]; [15]
  Plant response rating, Goosegrass: 85
[3]; [16]
  Plant response rating, Goosegrass: 90
[3]; [17]
  Goosegrass plant response rating: 95
[3]; [18]
  Plant response rating, Goosegrass: 0
[3]; [20]
  Goosegrass plant response rating: 95
[4]; [13]
  Plant response rating, Foxtail, Green: 85
[4]; [14]
  Plant response rating, Foxtail, Green: 85
[4]; [15]
  Plant response rating, Foxtail, Green: 90
[4]; [16]
  Plant response rating, Foxtail, Green: 90
[4]; [17]
  Foxtail, Green plant response rating: 90
[4]; [18]
  Plant response rating, Foxtail, Green: 35
[4]; [19]
  Plant response rating, Foxtail, Green: 80
[4]; [20]
  Foxtail, Green plant response rating: 85
[5]; [13]
  Plant response rating, Lambsquarters: 100
[5]; [15]
  Plant response rating, Lambsquarters: 100
[5]; [16]
  Plant response rating, Lambsquarters: 100
[5]; [17]
  Lambsquarters plant response rating: 100
[5]; [18]
  Plant response rating, Lambsquarters: 98
[5]; [19]
  Plant response rating, Lambsquarters: 100
[5]; [20]
  Lambsquarters plant response rating: 100
[6]; [13]
  Plant response rating, Crabgrass, Large: 100
[6]; [14]
  Plant response rating, Crabgrass, Large: 90
[6]; [15]
  Plant response rating, Crabgrass, Large: 95
[6]; [16]
  Plant response rating, Crabgrass, Large: 95
[6]; [17]
  Crabgrass, Large plant response rating: 98
[6]; [18]
  Plant response rating, Crabgrass, Large: 20
[6]; [19]
  Plant response rating, Crabgrass, Large: 90
[6]; [20]
  Crabgrass, Large plant response rating: 100
[7]; [13]
  Plant response rating, Morningglory: 20
[7]; [15]
  Plant response rating, Morningglory: 70
[7]; [16]
  Plant response rating, Morningglory: 75
[7]; [18]
  Plant response rating, Morningglory: 0
[7]; [19]
  Plant response rating, Morningglory: 0
[7]; [20]
  Morningglory plant response rating: 0
[8]; [13]
  Plant response rating, Wheat: 0
[8]; [15]
  Plant response rating, Wheat: 5
[8]; [16]
  Plant response rating, Wheat: 5
[8]; [18]
  Plant response rating, Wheat: 0
[8]; [20]
  Wheat plant response rating: 0
[9]; [13]
  Plant response rating, Oat, Wild: 0
[9]; [15]
  Plant response rating, Oat, Wild: 75
[9]; [16]
  Plant response rating, Oat, Wild: 75
[9]; [18]
  Plant response rating, Oat, Wild: 0
[9]; [20]
  Oat, Wild plant response rating: 0
[10]; [13]
  Plant response rating, Nutsedge, Yellow: 75
[10]; [15]
  Plant response rating, Nutsedge, Yellow: 20
[10]; [16]
  Plant response rating, Nutsedge, Yellow: 25
[10]; [18]
  Plant response rating, Nutsedge, Yellow: 0
[10]; [20]
  Nutsedge, Yellow plant response rating: 40
[11]; [21]
  Plant response rating, Flood, Barnyardgrass: 15
[11]; [22]
  Plant response rating, Barnyardgrass: 0
[11]; [23]
  Plant response rating, Barnyardgrass: 0
[11]; [24]
  Plant response rating, Barnyardgrass: 0
[12]; [21]
  Plant response rating, Flood, Sedge, Umbrella: 20
[12]; [22]
  Plant response rating, Sedge, Umbrella: 0
[12]; [23]
  Plant response rating, Sedge, Umbrella: 0
[12]; [24]
  Plant response rating, Sedge, Umbrella: 0
